# Measured values from US10487089B2, “Imaging agents and methods of identifying same” (The Trustees of the University of Pennsylvania, priority 2014, dated 2019).
# “Also recorded” adds a separate entry of the source. Like-named read-outs stand apart in the source and are kept apart here.
# How the values were obtained:
# [1] = Variable temperature 1H-NMR of E/Z interconversion; assay type: physicochemical; conditions: DMF-d7, coalescence at 45° C.
# Text: A rapid and efficient synthesis of the desired photoactivatable probe starting with commercially available 2-cyanopyridine (FIG. 52). 2-cyanopyridine was elaborated to thioketone A using methods similar to those previously reported (Rarig et al., 2013, J. Am. Chem. Soc. 135: 9213-9219, which is incorporated by reference in its entirety for all purposes). Homocoupling of A, using copper powder in toluene under refluxing conditions, yielded 1,1′-diazaxanthilidene 10 as an interconverting mixture of E and Z isomers in 84% yield (FIG. 43). Methylation of 10 with dimethyl sulfate afforded the desired monomethylated product 11-E/11-Z in 96% yield. The overall yield of the probe from commercial starting materials after 6 steps was 24% (FIGS. 43 and 52). Single crystals of 10-E and 11-Z were obtained by slow evaporation from chloroform:methanol (1:1) and water, respectively. […] Variable temperature ^1H-NMR (J. Sandström, 1982, Dynamic NMR spectroscopy, Academic Press, London, New York) of 10-E/10-Z in deuterated N,N-dimethylformamide confirmed the dynamic interconversion of the E and Z isomers at room temperature.
# HeLa cells [2] = assay: Confocal microscopy of stained live HeLa cells (subcellular localization, cell permeability); conditions: for staining specificity / subcellular localization: confocal microscopy
# Text: (§3) Confocal microscopy was done on a Yokogawa spinning disk inverted microscope with a 100× lens. Each batch of stained cells was imaged by exciting with a 488 nm laser while observing at 503-545 nm (the green overlay images), exciting with a 561 nm laser while observing at 583-650 nm (the red overlay images), and by DIC (the grey images) (FIG. 8).
# (§4) A 444 nm excitation was required to image with compounds 2 and 3 (FIG. 18).
# [3] = test system: mitochondria of HeLa cells; assay: Co-staining with mitotracker red, Pearson colocalization correlation; assay type: cell-based
# Procedure: (§1) Pearson correlations were done after co-staining with mitotracker or lysotracker to evaluate specificity.
# (§2) Confirmation of the supposed lysosome and mitochondria staining was achieved by doing co-staining experiments with Lysotacker Red™ and Mitortracker Red™, respectively. A Pearson colocalization correlation (PCC) of 0.75 was determined from a costaining experiments in which HeLa cells were incubated with E/Z-2 and Lysotracker. The imperfect correlation is due to higher specificity for a subset of vesicles stained by the Lysotracker.
# HeLa cells [4] = assay: Toxicity to HeLa cells on a 24 h timescale (live-cell imaging)
# HeLa cells [5] = assay: One-hundred-time-point timelapse microscopy (photostability / resistance to photobleaching); assay type: cell-based; conditions: for decrease in intensity after 100 scans: 300 ms/scan, HeLa cells; for photostability compared with commercial dyes: vs Lysotracker Red / Mitotracker Red, 100 laser pulses of 300 ms; for loss of intensity over 100 scans: 100 pulses of 300 ms, maximum intensity of the image tracked
# Procedure: One-hundred-time-point microscopy experiments were performed to evaluate photostability and/or resistance to photobleaching in comparison with the commercial dyes of lysotracker and mitotracker. […] For these experiments, each sample was pulsed 100 times for 300 ms and the maximum intensity of the image was tracked over time. […] Mitotracker was more robust than lysotracker, losing only 34% of its intensity over the 100 scans, while compound 3 lost only ˜13%. The most robust dye discovered thus far is monomethylated-3 (Me-3), which lost only ˜5% of its intensity over 100 scans.
# This was determined via one-hundred-time-point timelapse microscopy experiments in which the […] intensity of the image was monitored over 100 laser pulses of 300 ms (FIG. 42).
# To investigate photostability of 2 and 3, timelapse microscopy experiments were carried out.
# HeLa cells [6] = test system: HeLa cells
# [7] = Photophysical properties (absorption, emission, extinction coefficient, quantum yield); assay type: physicochemical
# Text: n-Butyllithium in hexanes was purchased from Acros and titrated with diphenylacetic acid, which was recrystallized from toluene. All other reagents were purchased from Sigma Aldrich and used without further purification. Solvents were purchased from either Sigma Aldrich or Fisher Scientific. Anhydrous solvents were purchased from Fisher Scientific and dried by passing through an alumina column of a solvent purification system. Silica gel (230-400 mesh) used for column chromatography was purchased from Silicycle. Thin layer chromatography plates (250 μm thickness) were purchased from Sorbent Technologies. Revered-phase column chromatography was done using a RediSep Rf Gold C18 column on a Teledyne Isco CombiFlash Rf system. High-performance liquid chromatography (HPLC) was performed on a Jasco HPLC system using a Phenomenex column (Luna 5u C18(2) 100A; 250×4.60 mm, 5 micron). UV absorption spectra were obtained on a Jasco V-650 spectrophotometer using a 1 cm path length quartz cuvette. Fluorescence emission spectra were taken on a Horiba Jobin-Yvon FluoroLog using a 1 cm path length fluorescence quartz cuvette. ^1H-NMR and ^13C-NMR were recorded on either a Bruker DMX 500 (500 MHz) or a Bruker AVII 500 (500 MHz). High-resolution mass spectrometry was performed using a Waters LCT Premier XE Mass Spectrometer (model KE 332). […] was performed using a Bruker APEX2-DUO CCD X-ray Diffractometer. Photoreactions were carried out in a Rayonet Photochemical Reactor (model RPR-100). Quantum yield was determined by serial dilution method using coumarine 153 (in ethanol, Φ=0.38) and fluorescein (in NaOH 0.1 M, Φ=0.95) as standards (Yvon, A guide to recording Fluorescence Quantum Yields, http://www.horiba.com/fileadmin/uploads/Scientific/Documents/Fluorescence/quantumyie ldstrad.pdf, accessed Jul. 13, 2014; Brouwer, 2011, Pure Appl. Chem. 83: 2213-2228)
# HeLa cells [8] = test system: HeLa cells; remark: listed apart in the source
# Text: as §3, §4
# lysosomes of HeLa cells = assay: Co-staining with lysotracker red, Pearson colocalization correlation; assay type: cell-based
# Procedure: as §1, §2
# [9] = in ethanol; cited from earlier work
# Text for Solubility (DMSO, water): Water solubility would then be evaluated first by simply doing an aqueous extraction.
compound,measurement,setting,value
"c1ccc2c(c1)Oc1cccnc1/C2=C1\c2ccccc2Oc2cccnc21 (racemic) [10-E/10-Z, 1,1′-diazaxanthilidene]",activation energy ΔG‡ of E/Z interconversion,[1],15.7 kcal/mol
"c1ccc2c(c1)Oc1cnccc1/C2=C1\c2ccccc2Oc2cnccc21 (racemic) [E/Z-1, 3,3′-diazaxanthylidene]",solubility in DMSO,"Solubility (DMSO, water); DMSO",poor solubility
"c1ccc2c(c1)oc1cncc3c4cccc5oc6cnccc6c(c54)c2c13 [Compound 2, chromeno[2,3,4-de]pyrido[3′,4′:2,3]chromeno[4,5-gh]isoquinoline;2,9-diaza-benzo[1,2,3-kl:6,5,4-k′l′]dixanthene]",cell permeability,HeLa cells [2],cell permeable; also recorded: cell-permeable
same,staining specificity / subcellular localization,HeLa cells [2],staining mitochondria; also recorded: selectively stain mitochondria rather than the nucleus; also recorded: mitochondria-specific dyes; also recorded: localize primarily in the mitochondria; also recorded: stains mitochondria and additional structures
same,Pearson correlation with mitotracker red,[3],0.75
same,toxicity to HeLa cells,HeLa cells [4],non-toxic
same,decrease in intensity after 100 scans,HeLa cells [5],only a slight decrease in intensity
same,photostability compared with commercial dyes,HeLa cells [5],superior
"c1cc2oc3cnccc3c3c2c(c1)c1cccc2oc4cnccc4c3c21 [Compound 3, 9,14-diaza-benzo[1,2,3-kl:6,5,4-k′l′]dixanthene]",toxicity to HeLa cells,HeLa cells [6],non-toxic
same,Pearson correlation with mitotracker red,[3],0.75
same,loss of intensity over 100 scans,HeLa cells [5],~13%
same,decrease in intensity after 100 scans,HeLa cells [5],only a slight decrease in intensity
C[n+]1cccc2oc3cccc4c5cccc6oc7cccnc7c(c65)c(c34)c21 [Compound 12],Stokes shift,[7],108 nm
same,Abs λmax,[7]; in water,504 nm
same,Em λmax,[7]; in water,612 nm
same,extinction coefficient ε,[7]; solvent: water,11496 M⁻¹ cm⁻¹
same,quantum yield Φ,[7]; solvent: water,0.100
"C[n+]1ccc2c(c1)oc1cccc3c4c[n+](C)cc5oc6ccccc6c(c54)c2c13 [DiMe-2, 2,9-dimethylchromeno[2,3,4-de]pyrido[3′,4′:2,3]chromeno[4,5-gh]isoquinoline-2,9-diium]",cell permeability,HeLa cells [2],cell permeable
same,staining specificity / subcellular localization,HeLa cells [2],specific for punctuate organelles; also recorded: lysosomal subcellular specificity
same,water solubility,"Solubility (DMSO, water)",water-solubility
same,toxicity to HeLa cells,HeLa cells [4],non-toxic
"C[n+]1ccc2c(c1)oc1cccc3c4cccc5oc6c[n+](C)ccc6c(c54)c2c13 [DiMe-3, 9,14-dimethyl-9,14-diaza-benzo[1,2,3-kl:6,5,4-k′l′]dixanthene]",staining specificity / subcellular localization,HeLa cells [2],staining lysosomes; also recorded: specific for punctuate organelles; also recorded: lysosomal subcellular specificity
same,toxicity to HeLa cells,HeLa cells [6],non-toxic
same,cell permeability,HeLa cells [8],cell permeable
"C[n+]1ccc2c(c1)Oc1ccccc1/C2=C1/c2ccccc2Oc2c[n+](C)ccc21 [DiMe-E-1, (E)-3,3′-dimethyl-[5,5′-bichromeno[2,3-c]pyridinylidene]-3,3′-diium]",cell permeability,HeLa cells [2],cell permeable
same,staining specificity / subcellular localization,HeLa cells [2],specific for punctuate organelles; also recorded: lysosomal subcellular specificity
same,water solubility,"Solubility (DMSO, water)",water-solubility
same,toxicity to HeLa cells,HeLa cells [4],non-toxic
same,photostability compared with commercial dyes,HeLa cells [5],superior
"C[n+]1ccc2c(c1)Oc1ccccc1/C2=C1\c2ccccc2Oc2c[n+](C)ccc21 [DiMe-Z-1, (Z)-N, N′-dimethyl-3,3′-diazaxanthylidene]",cell permeability,HeLa cells [2],cell permeable
same,staining specificity / subcellular localization,HeLa cells [2],specific for punctuate organelles; also recorded: lysosomal subcellular specificity
same,water solubility,"Solubility (DMSO, water)",water-solubility
same,toxicity to HeLa cells,HeLa cells [4],non-toxic
same,photostability compared with commercial dyes,HeLa cells [5],superior
C[n+]1ccc2c(c1)Oc1ccccc1/C2=C1/c2ccccc2Oc2c[n+](C)ccc21 [E/Z-6],staining specificity / subcellular localization,HeLa cells [2],stains lysosomes
"C[n+]1ccc2c(c1)oc1cccc3c4cccc5oc6cnccc6c(c54)c2c13 [Me-3, 9-Me-9,14-diaza-benzo[1,2,3-kl:6,5,4-k′l′]dixanthene]",Pearson correlation with lysotracker red,lysosomes of HeLa cells,0.25
same,loss of intensity over 100 scans,HeLa cells [5],~5%
"C[n+]1ccc2c(c1)Oc1ccccc1/C2=C1/c2ccccc2Oc2cnccc21 [Me-E-1, (E)-2-methyl-[5,5′-bichromeno[2,3-c]pyridinylidene]-2-ium]",staining specificity / subcellular localization,HeLa cells [2],lysosome-specific stain
same,staining specificity / subcellular localization,HeLa cells [2]; listed as Me-1,lysosome-specific stain
same,staining specificity / subcellular localization,"HeLa cells [2]; listed as monomethylated 3,3′-DAXAZ",good lysosomal stain
same,Pearson correlation with lysotracker red,lysosomes of HeLa cells,0.75
same,loss of intensity over 100 scans,HeLa cells [5],~30%
"ClCc1ccc(C2=c3cc4c5c(c3Oc3c2cc2c6c3CCCN6CCC2)CCC[N+]=5CCC4)cc1.[Cl-] [Mitotracker, reference compound]",loss of intensity over 100 scans,HeLa cells [5],34%
O=c1cc(C(F)(F)F)c2cc3c4c(c2o1)CCCN4CCC3 [coumarine 153],quantum yield Φ of standard,[9],0.38
"CN(C)CCNC(=O)CCc1ccc2n1[B-](F)(F)[N+]1=C(c3ccc[nH]3)C=CC1=C2 [lysotracker, reference compound]",loss of intensity over 100 scans,HeLa cells [5],80%
